Marks after values point to notes of the source that are not given here.

Holding throughout (format): physicochemical
A short description of data set [1]: Thermal stability by thermogravimetric analysis (TGA). To be noted: TGA at 10% weight loss. The method, then: (§1) The thermal stability of MILs was measured from 40 to 350° C. at a ramp rate of 5° C. min^−1 by performing thermogravimetric analysis (TGA) using a NETZSCH STA 449 F1 Jupiter thermal analyzer (Selb, Germany). To further investigate the thermal stability of MILs using a more sensitive technique, the solvents were employed as a gas chromatographic (GC) stationary phase and subjected to an oven temperature program from 40 to 200° C. at a ramp rate of 1° C. min^−1 and decomposition/degradation products detected using an ultra-sensitive flame ionization detector (FID), with all measurements being performed on an Agilent Technologies 7890B gas chromatograph (Santa Clara, CA, USA).
Volitization/degradation of MILs as a function of temperature were measured using thermogravimetric analysis. The thermal stability of magnetic ionic liquids was measured from 40 to 350° C. at a ramp rate of 5° C. min^−1 by performing thermogravimetric analysis (TGA) using a NETZSCH STA 449 F1 Jupiter thermal analyzer (Selb, Germany).
To investigate the ability of DGE-based MILs to withstand elevated temperatures without undergoing degradation/decomposition, their thermal stabilities were investigated using thermogravimetric analysis (TGA). FIG. 13 through FIG. 27 display thermograms for MILs 1 to 15. The thermogram results are summarized in greater detail in the following paragraphs.

A short description of data set [2]: Solubility of MILs in organic solvents and water. From the text:
The solubility of lanthanide and transition metal MILs was investigated in popular traditional organic solvents. […]
The solubility of lanthanide and transition metal MILs was investigated in popular traditional organic solvents.

Data set [3] is described as follows: Viscosity, Brookfield DVI cone and plate viscometer. To be noted: 21.7° C.; neat MIL dried 48 hours under vacuum. The method, then:
A Brookfield DVI cone and plate viscometer equipped with a CPA-51Z cone spindle was employed to obtain viscosity measurements at […] using approximately 0.5 g of each MIL after extensive drying for 48 hours under vacuum. Viscosity measurements were conducted at 21.7° C. for 15 lanthanide and transition metal MILs examined in this study.
Viscosity measurements were conducted at 21.7° C. for 15 lanthanide and transition metal MILs examined in this study.

Data set [4] in a line: Thermal stability, MIL as GC stationary phase with FID. To be noted: exponential increase in response beyond 2,000 pA. The method, then: as §1
To further investigate the thermal stability of MILs using a more sensitive technique, the solvents were employed as a gas chromatographic (GC) stationary phase and subjected to an oven temperature program from 40 to 200° C. at a ramp rate of 1° C. min^−1 and decomposition/degradation products detected using an ultra-sensitive flame ionization detector (FID).

Data set [5] can be described thus: Effective magnetic moment from magnetic susceptibility balance (MSB). To be noted: per formula unit. The method, then: Magnetic properties were analyzed using a magnetic susceptibility balance (MSB, Sherwood Scientific, Cambridge, UK) and a Quantum Design Superconducting Quantum Interference Device (SQUID) magnetometer (MPMS XL-7). The magnetic properties of transition metal MILs were further studied using a SQUID magnetometer to confirm their paramagnetic nature as well as if any magnetic transition occurs in the samples.
Magnetic susceptibility (XM) was calculated through Equation (1).
Effective magnetic moment (μeff) was calculated through Equation (2). In Equation (2), T represents the temperature at which the magnetic susceptibility measurements were conducted.
15 MILs incorporating rare-earth and transition metals were examined using a magnetic susceptibility balance (MSB).

Where [6] appears, read: acetone, chloroform, dichloromethane, acetonitrile, methanol, ethanol, diethyl ether, ethyl acetate, isopropanol at 20% (w/v).
The mark [7] stands for this setting: hexane, heptane, benzene, toluene at 10% (w/v).
Setting [8] is: hexane, heptane, benzene, toluene at 20% (w/v).
Where [9] appears, read: twelve organic solvents (without acetonitrile) at 50% (w/v).

For `O=C(C=C([O-])C(F)(F)F)C(F)(F)F.O=C(C=C([O-])C(F)(F)F)C(F)(F)F.O=C(C=C([O-])C(F)(F)F)C(F)(F)F.O=C(C=C([O-])C(F)(F)F)C(F)(F)F.O=C(C=C([O-])C(F)(F)F)C(F)(F)F.O=C(C=C([O-])C(F)(F)F)C(F)(F)F.O=C(COCC(=O)OC1CCCCC1)OC1CCCCC1.O=C(COCC(=O)OC1CCCCC1)OC1CCCCC1.O=C(COCC(=O)OC1CCCCC1)OC1CCCCC1.O=C(COCC(=O)OC1CCCCC1)OC1CCCCC1.O=C(COCC(=O)OC1CCCCC1)OC1CCCCC1.O=C(COCC(=O)OC1CCCCC1)OC1CCCCC1.[Mn+2].[Mn+2].[Mn+2]` [compound 9], the “Onset of MIL volatilization (° C.)^2” value in data set [1] is 176.9 °C. Moreover, the Solubility result was “S^b (soluble in acetone, chloroform, dichloromethane, acetonitrile, methanol, ethanol, diethyl ether, ethyl acetate, and isopropanol at 20% (w/v).)” in data set [2] (setting [6]); “S^e (insoluble in acetonitrile at 50% (w/v).)” in data set [2] (acetonitrile at 50% (w/v)); “S^a (soluble in hexane, heptane, benzene, and toluene at 10% (w/v).)” in data set [2] (setting [7]); “S^c (soluble in hexane, heptane, benzene, and toluene at 20% (w/v).)” in data set [2] (setting [8]); “S^d (soluble in acetone, chloroform, dichloromethane, methanol, ethanol, diethyl ether, ethyl acetate, isopropanol hexane, heptane, benzene, and toluene at 50% (w/v).)” in data set [2] (setting [9]); “S^f (insoluble in water at 0.01% (w/v).)” in data set [2] (water at 0.01% (w/v)). For the same compound, the “Viscosity (cP)” value in data set [3] is 478.9 cP. Also, the “Onset of MIL volatilization (° C.)^1” value in data set [4] was 159 °C. In addition, in data set [5], the “μeff, effective magnetic moment” value was 9.96 μB.

In the case of `CCCCCCCCOC(=O)c1ccc(C(=O)OCCCCCCCC)o1.CCCCCCCCOC(=O)c1ccc(C(=O)OCCCCCCCC)o1.CCCCCCCCOC(=O)c1ccc(C(=O)OCCCCCCCC)o1.CCCCCCCCOC(=O)c1ccc(C(=O)OCCCCCCCC)o1.CCCCCCCCOC(=O)c1ccc(C(=O)OCCCCCCCC)o1.CCCCCCCCOC(=O)c1ccc(C(=O)OCCCCCCCC)o1.O=C(C=C([O-])C(F)(F)F)C(F)(F)F.O=C(C=C([O-])C(F)(F)F)C(F)(F)F.O=C(C=C([O-])C(F)(F)F)C(F)(F)F.O=C(C=C([O-])C(F)(F)F)C(F)(F)F.O=C(C=C([O-])C(F)(F)F)C(F)(F)F.O=C(C=C([O-])C(F)(F)F)C(F)(F)F.[Co+2].[Co+2].[Co+2]` [compound 10], the “Onset of MIL volatilization (° C.)^2” value in data set [1] came out at 163.0 °C. Further, the Solubility result in data set [2] (setting [6]) is “S^b (soluble in acetone, chloroform, dichloromethane, acetonitrile, methanol, ethanol, diethyl ether, ethyl acetate, and isopropanol at 20% (w/v).)”; in data set [2] (setting [7]), “S^a (soluble in hexane, heptane, benzene, and toluene at 10% (w/v).)”; in data set [2] (setting [8]), “S^c (soluble in hexane, heptane, benzene, and toluene at 20% (w/v).)”; in data set [2] (setting [9]) it was “S^d (soluble in acetone, chloroform, dichloromethane, methanol, ethanol, diethyl ether, ethyl acetate, isopropanol hexane, heptane, benzene, and toluene at 50% (w/v).)”; in data set [2] (water at 0.01% (w/v)) it was “S^f (insoluble in water at 0.01% (w/v).)”. In addition, in data set [3], the “Viscosity (cP)” value is recorded as 354.7^b cP. Moreover, the “Onset of MIL volatilization (° C.)^1” value in data set [4] came out at 147 °C. Besides, the “μeff, effective magnetic moment” value in data set [5] amounted to 8.27 μB.

In the case of `CCCCCCCCOC(=O)c1ccc(C(=O)OCCCCCCCC)o1.CCCCCCCCOC(=O)c1ccc(C(=O)OCCCCCCCC)o1.CCCCCCCCOC(=O)c1ccc(C(=O)OCCCCCCCC)o1.CCCCCCCCOC(=O)c1ccc(C(=O)OCCCCCCCC)o1.CCCCCCCCOC(=O)c1ccc(C(=O)OCCCCCCCC)o1.CCCCCCCCOC(=O)c1ccc(C(=O)OCCCCCCCC)o1.O=C(C=C([O-])C(F)(F)F)C(F)(F)F.O=C(C=C([O-])C(F)(F)F)C(F)(F)F.O=C(C=C([O-])C(F)(F)F)C(F)(F)F.O=C(C=C([O-])C(F)(F)F)C(F)(F)F.O=C(C=C([O-])C(F)(F)F)C(F)(F)F.O=C(C=C([O-])C(F)(F)F)C(F)(F)F.[Ni+2].[Ni+2].[Ni+2]` [compound 11], the “Onset of MIL volatilization (° C.)^2” value in data set [1] stood at 160.6 °C. Also, the Solubility entry in data set [2] (setting [6]) was “S^b (soluble in acetone, chloroform, dichloromethane, acetonitrile, methanol, ethanol, diethyl ether, ethyl acetate, and isopropanol at 20% (w/v).)”; in data set [2] (setting [7]) it was “S^a (soluble in hexane, heptane, benzene, and toluene at 10% (w/v).)”; in data set [2] (setting [8]), “S^c (soluble in hexane, heptane, benzene, and toluene at 20% (w/v).)”; in data set [2] (setting [9]) it was “S^d (soluble in acetone, chloroform, dichloromethane, methanol, ethanol, diethyl ether, ethyl acetate, isopropanol hexane, heptane, benzene, and toluene at 50% (w/v).)”; in data set [2] (water at 0.01% (w/v)) it was “S^f (insoluble in water at 0.01% (w/v).)”. Moreover, the “Viscosity (cP)” value in data set [3] is 453.5^b cP. Also, the “Onset of MIL volatilization (° C.)^1” value in data set [4] is 142 °C. The “μeff, effective magnetic moment” value in data set [5] is recorded as 5.51 μB.

In the case of `CCCCCCCCOC(=O)c1ccc(C(=O)OCCCCCCCC)o1.CCCCCCCCOC(=O)c1ccc(C(=O)OCCCCCCCC)o1.CCCCCCCCOC(=O)c1ccc(C(=O)OCCCCCCCC)o1.CCCCCCCCOC(=O)c1ccc(C(=O)OCCCCCCCC)o1.CCCCCCCCOC(=O)c1ccc(C(=O)OCCCCCCCC)o1.CCCCCCCCOC(=O)c1ccc(C(=O)OCCCCCCCC)o1.O=C(C=C([O-])C(F)(F)F)C(F)(F)F.O=C(C=C([O-])C(F)(F)F)C(F)(F)F.O=C(C=C([O-])C(F)(F)F)C(F)(F)F.O=C(C=C([O-])C(F)(F)F)C(F)(F)F.O=C(C=C([O-])C(F)(F)F)C(F)(F)F.O=C(C=C([O-])C(F)(F)F)C(F)(F)F.[Mn+2].[Mn+2].[Mn+2]` [compound 12], the “Onset of MIL volatilization (° C.)^2” value in data set [1] was determined as 160.4 °C. Besides, the Solubility entry in data set [2] (setting [6]) was “S^b (soluble in acetone, chloroform, dichloromethane, acetonitrile, methanol, ethanol, diethyl ether, ethyl acetate, and isopropanol at 20% (w/v).)”; in data set [2] (setting [7]), “S^a (soluble in hexane, heptane, benzene, and toluene at 10% (w/v).)”; in data set [2] (setting [8]), “S^c (soluble in hexane, heptane, benzene, and toluene at 20% (w/v).)”; in data set [2] (setting [9]), “S^d (soluble in acetone, chloroform, dichloromethane, methanol, ethanol, diethyl ether, ethyl acetate, isopropanol hexane, heptane, benzene, and toluene at 50% (w/v).)”; in data set [2] (water at 0.01% (w/v)), “S^f (insoluble in water at 0.01% (w/v).)”. Also, the “Viscosity (cP)” value in data set [3] was 291.8^b cP. Moreover, the “Onset of MIL volatilization (° C.)^1” value in data set [4] stood at 144 °C. Besides, the “μeff, effective magnetic moment” value in data set [5] is 10.04 μB.

Take `CCCCCCCCOC(=O)COCC(=O)OCCCCCCCC.CCCCCCCCOC(=O)COCC(=O)OCCCCCCCC.CCCCCCCCOC(=O)COCC(=O)OCCCCCCCC.CCCCCCCCOC(=O)COCC(=O)OCCCCCCCC.CCCCCCCCOC(=O)COCC(=O)OCCCCCCCC.CCCCCCCCOC(=O)COCC(=O)OCCCCCCCC.O=C(C=C([O-])C(F)(F)F)C(F)(F)F.O=C(C=C([O-])C(F)(F)F)C(F)(F)F.O=C(C=C([O-])C(F)(F)F)C(F)(F)F.O=C(C=C([O-])C(F)(F)F)C(F)(F)F.O=C(C=C([O-])C(F)(F)F)C(F)(F)F.O=C(C=C([O-])C(F)(F)F)C(F)(F)F.O=C(C=C([O-])C(F)(F)F)C(F)(F)F.O=C(C=C([O-])C(F)(F)F)C(F)(F)F.[Co+2].[Dy+3].[Dy+3]` [compound 13]: the “Onset of MIL volatilization (° C.)^2” value in data set [1] came to 182.3 °C. Also, the Solubility result in data set [2] (setting [6]) was “S^b (soluble in acetone, chloroform, dichloromethane, acetonitrile, methanol, ethanol, diethyl ether, ethyl acetate, and isopropanol at 20% (w/v).)”; in data set [2] (setting [7]) it was “S^a (soluble in hexane, heptane, benzene, and toluene at 10% (w/v).)”; in data set [2] (setting [8]), “S^c (soluble in hexane, heptane, benzene, and toluene at 20% (w/v).)”; in data set [2] (setting [9]), “S^d (soluble in acetone, chloroform, dichloromethane, methanol, ethanol, diethyl ether, ethyl acetate, isopropanol hexane, heptane, benzene, and toluene at 50% (w/v).)”; in data set [2] (water at 0.01% (w/v)) it was “S^f (insoluble in water at 0.01% (w/v).)”. In data set [3], the “Viscosity (cP)” value was 137.2 cP. Further, the “Onset of MIL volatilization (° C.)^1” value in data set [4] is 131 °C. The “μeff, effective magnetic moment” value in data set [5] is 15.38 μB.

Values taken from patent US20240401154A1, “SYNTHESIS AND PREPARATION OF ULTRA-LOW VISCOSITY AND HIGH MAGNETIC SUSCEPTIBILITY MAGNETIC IONIC LIQUIDS” (priority 2023, published 2024).
